Results from US8999937B2, “Glucocorticoid induced leucine zipper mimetics as therapeutic agents in multiple sclerosis” (Indiana University Research and Technology Corporation, priority 2011, dated 2015).

Columns and labels:
[1] = biological target: T1, recombinant human p65 protein (r-p65) (Homo sapiens, UniProt Q04206); assay: GILZ:p65 direct binding and kinetics by modified ELISA
T1 construct: control-P at varying concentrations was probed with full-length r-p65-DDK; purchased OriGene Technologies Inc., Rockville, Md
T1 sequence (Q04206 whole entry): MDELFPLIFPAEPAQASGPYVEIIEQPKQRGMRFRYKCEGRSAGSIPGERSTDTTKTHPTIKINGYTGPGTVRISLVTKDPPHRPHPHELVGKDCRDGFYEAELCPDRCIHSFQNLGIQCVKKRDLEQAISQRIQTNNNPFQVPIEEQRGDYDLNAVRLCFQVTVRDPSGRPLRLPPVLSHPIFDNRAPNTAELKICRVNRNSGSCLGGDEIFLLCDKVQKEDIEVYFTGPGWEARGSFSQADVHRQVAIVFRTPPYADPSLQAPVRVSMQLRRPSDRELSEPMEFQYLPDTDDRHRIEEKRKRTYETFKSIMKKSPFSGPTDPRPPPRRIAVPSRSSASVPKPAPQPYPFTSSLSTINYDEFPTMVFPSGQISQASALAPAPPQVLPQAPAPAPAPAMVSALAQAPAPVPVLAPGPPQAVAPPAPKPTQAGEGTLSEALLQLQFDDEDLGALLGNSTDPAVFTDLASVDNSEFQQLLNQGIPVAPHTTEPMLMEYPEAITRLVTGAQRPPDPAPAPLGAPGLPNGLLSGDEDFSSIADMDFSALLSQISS
Protocol: To detect direct interaction, ELISA plates were coated with increasing concentrations of the GILZ protein and probed with increasing concentrations of the p65 protein followed by detection with anti-human GILZ mAb. To detect binding of cellular GILZ and p65, ELISA plates were coated with the p65 protein (20 ng), and probed with the cytoplasmic fraction from T cells. Binding of the plate bound p65 with the cytoplasmic GILZ protein was detected with anti-human GILZ mAb. Alternatively, wells coated with the GILZ-GST protein (20 ng) were probed with the nuclear fractions from T cells and the GILZ:nuclear p65 binding was detected with anti-human p65 mAb. The bound complex was detected with TNB at absorbance of 450 nm.
(§2) Binding of the plate-bound r-p65 with cytoplasmic GILZ and the plate-bound GILZ with nuclear p65 was detected with anti-GILZ mAb or anti-p65 mAb, respectively, followed by trinitrobenzene substrate. […] Absorbance at 650 nm was measured between 0 and 300 s with a mixing time of 0.30 s and a 5-s interval between readings.

p65ΔC14 = biological target: T2, p65ΔC14 (Homo sapiens, UniProt Q04206); assay: GILZ binding ELISA with partial length p65; conditions: detected with anti-p65 mAb
T2 construct: purchased Active Motif, Carlsbad, Calif
T2 sequence (Q04206 1-537 limits assumed, stated change not applied): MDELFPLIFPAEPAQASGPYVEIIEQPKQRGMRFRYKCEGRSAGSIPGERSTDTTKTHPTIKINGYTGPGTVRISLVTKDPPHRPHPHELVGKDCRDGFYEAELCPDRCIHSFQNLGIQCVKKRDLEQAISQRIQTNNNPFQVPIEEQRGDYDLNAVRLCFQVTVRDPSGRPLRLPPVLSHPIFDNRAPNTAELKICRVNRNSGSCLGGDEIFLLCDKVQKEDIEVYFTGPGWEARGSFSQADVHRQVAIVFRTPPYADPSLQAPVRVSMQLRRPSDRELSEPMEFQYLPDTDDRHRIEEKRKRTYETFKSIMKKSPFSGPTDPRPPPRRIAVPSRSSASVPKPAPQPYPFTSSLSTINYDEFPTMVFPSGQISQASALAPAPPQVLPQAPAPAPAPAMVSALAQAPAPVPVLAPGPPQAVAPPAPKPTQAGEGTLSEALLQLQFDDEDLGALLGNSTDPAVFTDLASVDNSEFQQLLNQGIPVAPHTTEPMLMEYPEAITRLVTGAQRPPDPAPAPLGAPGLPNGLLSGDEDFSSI
Protocol: as §2

[2] = tested on: CD4+ LNC from PLP primed SJL/J mice; assay: In vitro proliferation ([3H]-thymidine) of PLP139-151 restimulated CD4+ LNC from primed SJL/J mice; assay type: cell-based, mouse; conditions: for proliferative response, in words: vs PLP139-151 alone or vs r-GILZ
Protocol: CD4+ lymph node cells (LNC) isolated from the draining lymph nodes harvested from SJL/J mice 10 days after immunization with PLP139-151 were cultured in 96-well plates at […] in complete RPMI and restimulated with the PLP peptide (40 μg/ml) for 72 h, including a final 16-h pulse with [^3H]-thymidine. […] Separate cultures stimulated with ova (40 μg/ml) served as control for antigen specificity. Irradiated splenocytes from syngenic mice were used as antigen presenting cells (APC). Cultures were harvested onto glass fiber mats using a Skatron harvester (Skatron, Sterling, Va.), and the levels of [^3H]-thymidine incorporation were determined by liquid scintillation counting (Microbeta; Wallac, Turku, Finland). Results were confirmed by replicate experiments. Data are expressed as Δcpm (counts/min incorporated in antigen-stimulated culture-counts/min incorporated by control unstimulated culture).
(§1) Supernatants collected at 24 and 48 h were assessed for specific cytokines using the OptEIA kits (BD Biosciences). Proliferation assays included parallel cultures for 72 h with a final 18-h pulse with [^3H]thymidine measured by liquid scintillation counting (Microbeta, Turku, Finland).

[3] = tested on: activated p65 NF-κB subunit; assay: NF-κB assay (TransAM): p65 DNA binding in nuclear extracts; assay type: cell-based, mouse; conditions: CD4+ LNC restimulated with PLP139-151, 24 h
Protocol: Nuclear and cytoplasmic protein fractions of CD4+ T cells obtained using a nuclear extraction kit are assessed for NF-κB activation and p65 nuclear translocation using Trans^AM NF-κB kits (Active Motif, Carlsbad, Calif.). The effect of exogenous GILZ and GILZ mimetics on phosphorylation and proteolytic degradation of IκB proteins is determined by Western blot analysis of nuclear and cytoplasmic protein fractions from CD4+ T cells pretreated with GILZ/chariot peptide complex prior to stimulation.
5 μg of nuclear extracts isolated from PLP139-151 restimulated CD4+ cells from R-EAE mice were incubated in a 96-well plate coated with oligonucleotides containing the NF-κB consensus binding site. The activated NF-κB bound to DNA was detected by anti-p65 antibody followed by a peroxidase-coupled secondary antibody and substrate using the TransAM kit protocol (Active Motif).

[4] = tested on: CD4+ splenocytes from R-EAE mice; assay: Ex vivo proliferation of CD4+ splenocytes from treated R-EAE mice; assay type: in vivo, mouse; conditions: for proliferative responses (mean Δcpm) to PLP139-151: mice treated on day 0, cells 45 days post-immunization; for average proliferative response of unstimulated CD4+ splenocytes: in cpm
Protocol: Data represent average±S.D. from two experiments (n=9/group). (C)-(H) show GILZ-peptide treatment suppresses Th1 cytokines in R-EAE. […] C, proliferative responses of CD4+ splenocytes are plotted as Δcpm±S.E. #, p<0.05 as compared with the responses of cells from vehicle-treated mice. Supernatant collected at 48 h from separate CD4+ splenocyte cultures were assessed for (D) IL-12, (E) IFN-γ, (F) IL-17, (G) IL-10, and (H) TGF-β by ELISA. * and # represent p<0.05 as compared with vehicle or control peptide-treated groups, respectively.
as §1

[5] = tested on: T-bet, GATA-3, IL-10 and FoxP3 mRNA; assay: Quantitative RT-PCR in CD4+ LNC from treated R-EAE mice; assay type: in vivo, mouse; conditions: for GATA-3 mRNA / T-bet mRNA: mice treated on day 0, re-stimulation with PLP139-151; for FoxP3 mRNA / IL-10 mRNA: mice treated on day 0, vs vehicle/control-P
Protocol: 50 ng of cDNA from CD4+LNC were used for quantitative measurement of message for (A) T-bet, (B) GATA-3, (C) IL-10, and (D) FoxP3 by quantitative RT-PCR. (E), gel electrophoresis of representative products. * and # represent p<0.05 by analysis of variance as compared with vehicle or control peptide-treated group, respectively.

Circular dichroism = assay type: physicochemical
Protocol: CD measurements can be recorded on a JASCO model, J-710 spectropolarimeter, (Jasco Inc, Easton, Md.) as described previously. The samples can be prepared by dissolving lyophilized GILZ peptide or control peptides at 100 μM concentration in citrate buffer (1 mM sodium citrate, 1 mM sodium borate, 1 mM sodium phosphate, 15 mM NaCl) with pH adjusted at 7.0. CD spectra can be collected using a 1 cm path-length quartz cuvette at 50° C. or 90° C. in the 190- to 270-nm wavelength range with a 0.5 nm resolution and a scan rate of 200 nm/min. Reported spectra can represent the unsmoothed averages of 30 scans. Each spectrum can be measured three times with individually prepared solutions. Raw CD signals (in millidegrees) can be converted to mean residue molar ellipticity (θ) in deg cm^2/dmol using the formula [θ] MRW 5 [θ]obs/101cn, where θ obs is the observed ellipticity, 1 is the pathlength in centimeters, c is the molar concentration of peptide, and n is the number of residues in the peptide. To determine 0% PPII helical content CD spectra can be recorded with GILZ-peptide dissolved in 5M CaCl2.

[6] = tested on: PPD stimulated human CD4+ T cells; assay: Cytokine secretion by PPD-stimulated human CD4+ T cells (ELISA); assay type: cell-based; conditions: 24 h, complex with chariot peptide
Protocol: Purified CD4+ T cells isolated from PBMC by magnetic cell separation (Miltenyi Biotech, Germany), were seeded with irradiated autologous PBMC (T cells depleted) as APC at 1:1.5 ratio in serum-free RPMI (with 5% penicillin/streptomycin), and stimulated with PPD (20 μm/ml) alone or in the presence of dexamethasone (100 μm/ml) or 20:1 M complex of chariot peptide with GILZ protein (0.7 μm/ml)/anti-human GILZ mAb (1 μm/ml)/anti-human p65 mAb (1 μm/ml)/control antibody (1 μm/ml). Supernatants collected at 24 hrs were assessed for cytokines including human IFN-γ, TNF-α, IL-12 p40 and IL-10 using BD OptEIA™ kits. Differences in the secretion of cytokines between the groups were determined by one way ANOVA followed by Tukey's post-hoc analysis (see FIG. 4).

Substance: Ac-CLSPEEPAPESPQVPEAPGGSAV-NH2 [GILZ-P]
- time at which maximum absorbance was reached in binding with r-p65 [1]: 38 s
- adjusted velocity of the interaction with r-p65 ([1]; at 1:4 molar concentrations): 25 s⁻¹
- p65 binding (absorbance) of plate-bound agent probed with full-length r-p65 ([1]; varying coating concentrations, 40 μM r-p65): decreased with decreasing concentrations
- absorbance of plate-bound agent probed with p65ΔC14 (p65ΔC14): Absorbance over background was not observed
- proliferative response (mean Δcpm), maximum inhibition ([2]; 250 μM GILZ-P with Pep-1): 1404±106 cpm
- proliferative response (Δcpm) ([2]; GILZ peptide in the absence of Pep-1): 6663±173 cpm
- proliferative response (Δcpm) ([2]; GILZ peptide in the absence of Pep-1, listed as GILZ peptide): 6663+/−173 cpm
- proliferative response (Δcpm) ([2]; peptide 500 μM in complex with Pep-1, PLP 40 μg/ml, 72 h): 1702+/−217 cpm
- proliferative response, in words [2]: significantly decreased proliferative response
- proliferative response, in words ([2]; listed as GILZ peptide): greater inhibition than those treated with r-GILZ at all concentrations
- p65-specific DNA binding activity in nuclear extracts [3]: significantly decreased
- proliferative responses (mean Δcpm) to PLP139-151 [4]: 5,733±208 cpm
- average proliferative response of unstimulated CD4+ splenocytes ([4]; mice treated on day 0): 2,376±602
- average proliferative response of unstimulated CD4+ splenocytes ([4]; mice treated on day 12): 1,823±532
- GATA-3 mRNA [5]: elevated
- T-bet mRNA [5]: significantly lower
- FoxP3 mRNA [5]: significantly higher
- IL-10 mRNA [5]: significantly higher
- mean residue molar ellipticity θ, maximum at 238 nm (Circular dichroism; 50° C.): 1.12×10^3 deg cm^2 dmol^−1
- mean residue molar ellipticity θ, minimum at 200 nm (Circular dichroism; 50° C.): −20.03×10^3 deg·cm^2/dmol
- mean residue molar ellipticity θ @ 204 nM (Circular dichroism; 90° C.): −11.37×10^3 deg cm^2/dmol
- mean residue ellipticity minimum at 205 nM (Circular dichroism; in 5M CaCl2): −8.84×10^3 deg cm^2/dmol

Substance: r-GILZ: recombinant glucocorticoid induced leucine zipper protein (Abnova; OriGene with C-terminal DDK)
- IL-10 secretion [6]: significantly elevated
- secretion of IFN-γ [6]: significantly reduced
- secretion of IL-12 [6]: significantly reduced
- proliferative response (Δcpm) ([2]; r-GILZ 200 ng with Pep-1, PLP 40 μg/ml, 72 h): 4658+/−266 cpm
- proliferative response, in words [2]: significantly decreased proliferative response
- p65-specific DNA binding activity in nuclear extracts [3]: significantly decreased
- proliferative responses (mean Δcpm) to PLP139-151 [4]: 16,880±264 cpm
- average proliferative response of unstimulated CD4+ splenocytes ([4]; mice treated on day 0): 2,037±603
- GATA-3 mRNA [5]: elevated
- T-bet mRNA [5]: significantly lower
- FoxP3 mRNA [5]: significantly higher
- IL-10 mRNA [5]: significantly higher
